According to PubChem BioAssay AID588838 (Broad Institute, 2011):

test system: P. falciparum Dd2 in RBCs, SYBR green growth; assay: growth inhibition of P. falciparum blood stages, dose response, PfHsp90 inhibitor project, Dd2 strain, red blood cells, dry powder (AID 588838)

Going from Cc1ccc(OCc2n[nH]c(=S)n2C2CCCCC2)cc1 to O=S(=O)(NC1CCCCCC1)c1ccc(Br)s1, the AC50 falls from 60.6 µM to 16.3 µM (3.7-fold).

O=S(=O)(NC1CC2CCC1C2)c1ccc(Cl)cc1 (stereo unspecified) and O=S(=O)(/C=C/c1ccccc1)NC1CCCCCCC1 are within 1.5-fold of each other in AC50: 98.5 µM for the first, 66.1 µM for the second.

COc1ccc2c(c1)C=C(C(=O)NCc1ccc(Cl)cc1)CO2 and O=C(CSCC(=O)N1CCCCC1)Nc1nc(-c2ccc(Cl)s2)cs1 are within 1.5-fold of each other in AC50: 43.9 µM for the first, 40 µM for the second.
